Article PMC10745659, “Chemical Constituents and α-Glucosidase Inhibitory, Antioxidant and Hepatoprotective Activities of Ampelopsis grossedentata” (Molecules, 2023)

Experiments:
[1] = ABTS radical cation scavenging assay; conditions: mean ± SD, n = 4; ascorbic acid positive control
Method: The ABTS free radical scavenging capacity of all isolated compounds was measured, the procedure followed a method with minor modifications. […] Equal volumes of ABTS (2,2′-azinobis(3-ethylbenzthiazoline-6-sulphonic acid)) solution (7 mM) and potassium persulfate solution (2.45 mM) were mixed evenly and left to react at room temperature for 12 h in the dark to obtain ABTS radical cation. The mixture was then diluted with anhydrous methanol to achieve an absorbance value of about 0.7 ± 0.02 units at 405 nm. Then, 190 μL of ABTS working solution was added to each well, followed by 10 μL samples of varying concentrations (0.8, 0.4, 0.2, 0.1, 0.05, 0.025, 0.0125, and 0.00625 mM) that were dissolved and diluted with DMSO. After mixing well, the samples were incubated at room temperature for 6 min away from light. The subsequent experimental method is basically consistent with the DPPH assay, the only difference is that ABTS assay detects the absorbance value at 405 nm.
The percentage radical cation scavenging rate (%) of each test sample for ABTS was calculated as follows:Radical cation scavenging rate (%) = [Ablank − (Asample − Acontral)] ÷ Ablank × 100%
The IC50 values were calculated by using GraphPad Prism 9.0 software.

[2] = FRAP assay (total antioxidant capacity); conditions: for FRAP Assay: Fe2+ concentration equivalent, sample solution 0.68 mM, mean ± SD, n = 4
Method: The total antioxidant capacity of the samples was measured by the FRAP (ferric reducing ability of plasma) assay, with slight modifications. The acetate buffer (0.3 M, pH 3.6), TPTZ (2,4,6-tris(2-pyridyl)-S-triazine) solution (10 mM) in 40 mM HCl and ferric chloride aqueous solution (10 mM) were uniformly mixed at a volume ratio of 7:1:1 to obtain the FRAP working solution. FRAP working solution was preheated for 10 min in a constant temperature incubator at 37 °C before use. […] Then, 180 μL of FRAP working solution was added to each well, followed by 6 μL of sample solution (0.68 mM), and finally 18 μL of distilled water. Then, the mixture was stirred well and left to react at room temperature for 10 min. The absorbance values of each well were measured at 593 nm using a microplate reader and the results were obtained from at least three independent experiments. The sample solution was replaced with DMSO as a blank solution and ascorbic acid was used as a positive control. Different concentrations of FeSO4·7H2O (0.075–0.00078 μmol/mL) were used to establish the standard curve. The antioxidant capacity of the sample was expressed as the Fe^2+ concentration (μmol/mL) required to achieve the same absorbance change value. The final result was calculated by GraphPad Prism 9.0 software and presented as mean ± standard deviation (SD) of μmol Fe^2+ per milliliter.

[3] = tested on: HepG2 cells; experiment: Hepatoprotective activity, APAP-induced HepG2 cell injury model (CCK-8); assay type: cell-based; conditions: for viability at 20 µM: Homo sapiens, 20 μM compound, APAP 6 mM, 48 h, HepG2, APAP model 68.24 ± 1.34%, n = 3, mean ± SD; for hepatoprotective activity (in words): 20 μM, APAP-induced HepG2 cell injury
Method: All these parameters were higher than in the preparation of cell viability positive control of 83.01 ± 0.82%.
HepG2 cells were maintained in DMEM medium supplemented with 10% fetal bovine serum, 100 U/mL penicillin G, and 100 μg/mL streptomycin. The cells were seeded in culture flasks and placed in a 5% CO2 incubator at 37 °C for routine cultivation. The hepatoprotective activities of the isolated samples were tested according to the modified method. To evaluate the effect of test samples on cell viability, a CCK-8 assay was performed. The experiment was conducted in 96-well plates, and 100 μL of HepG2 cells in logarithmic growth phase (8 × 10^5 cells/mL) were seeded in each well and cultured for 24 h. After that, samples (final concentration of 20 μM) and acetaminophen (APAP, final concentration of 6 mM) were added at one time to incubate for another 48 h. Then, 10 μL CCK-8 was added to each well and incubated for 1 h, followed by measuring the absorbance at a wavelength of 450 nm using a microplate reader.

[4] = DPPH free radical scavenging assay; conditions: mean ± SD, n = 4; ascorbic acid positive control
Method: The DPPH free radical scavenging capacity of isolated compounds was determined according to a modified method. […] All isolated compounds and positive drug were dissolved and diluted in DMSO and DPPH (2,2-Diphenyl-1-picrylhydrazyl) was dissolved in anhydrous ethanol. Briefly, 190 μL of a working solution of DPPH (0.2 mM) was added to each well. Then, 10 μL of a sample solution of different concentrations (1.6, 1.2, 0.8, 0.4, 0.2, and 0.1 mM) was added, mixed well, and left to incubate in the dark at room temperature for 60 min. After that, the absorbance values of each well were measured at 517 nm using a microplate reader and the results were obtained from a minimum of three independent experiments. Ascorbic acid was used as the positive control. DMSO was used to replace the sample solution as a blank and absolute ethanol was used to replace the DPPH solution as a control.
The percentage free radical scavenging rate (%) of each test sample for DPPH was calculated as:Free radical scavenging rate (%) = [Ablank − (Asample − Acontral)] ÷ Ablank × 100%

[5] = target: α-glucosidase (Saccharomyces cerevisiae, UniProt P53341); experiment: α-glucosidase inhibitory assay (p-NPG substrate); assay type: biochemical
α-glucosidase, sequence (P53341 whole entry): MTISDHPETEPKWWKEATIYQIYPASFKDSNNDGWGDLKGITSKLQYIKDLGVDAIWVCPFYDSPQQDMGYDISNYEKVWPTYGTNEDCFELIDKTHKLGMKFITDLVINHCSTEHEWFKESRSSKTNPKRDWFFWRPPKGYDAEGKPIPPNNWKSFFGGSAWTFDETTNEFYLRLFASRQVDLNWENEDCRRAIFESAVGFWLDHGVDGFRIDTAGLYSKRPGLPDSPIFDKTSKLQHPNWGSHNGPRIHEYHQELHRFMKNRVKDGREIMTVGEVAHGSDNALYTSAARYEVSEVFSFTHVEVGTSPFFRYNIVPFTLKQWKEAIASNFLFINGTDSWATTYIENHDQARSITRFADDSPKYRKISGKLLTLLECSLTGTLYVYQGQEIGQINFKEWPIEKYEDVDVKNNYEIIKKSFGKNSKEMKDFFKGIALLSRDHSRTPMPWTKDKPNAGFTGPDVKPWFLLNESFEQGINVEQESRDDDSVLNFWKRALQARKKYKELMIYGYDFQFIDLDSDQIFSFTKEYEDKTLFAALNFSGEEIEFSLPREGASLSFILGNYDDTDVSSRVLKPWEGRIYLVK
Method: The α-glucosidase inhibitory activities of isolated compounds were evaluated by using a method previously described, but with minor modifications [34]. […] Briefly, 98 μL of PBS (0.1 M, pH 6.8) was added to each well. Then, 2 μL of different concentrations of sample solutions and 25 μL of α-glucosidase solution (0.25 U/mL) were added. After shaking and mixing slightly, the 96-well plate was placed in a 37 °C constant-temperature incubator and incubated for 20 min. Next, 25 μL of p-NPG (4 mM) was added to the plate to initiate the reaction, and it was further incubated in a 37 °C constant-temperature incubator for 15 min. Then, 50 μL of Na2CO3 (0.2 M) solution was quickly added to each well to terminate the reaction. The absorbance was measured at 405 nm using a microplate reader, and the results were obtained from a minimum of three independent experiments.

Compound | IC50 [1] [µM] | FRAP Assay [2] [µmol/mL] | viability at 20 µM [3] [%] | IC50 [4] [µM] | hepatoprotective activity (in words) [3] | α-glucosidase inhibition (in words) [5] | FRAP value [2] [µmol/mL] | IC50 ([5]; mean ± SD, n = 4, acarbose positive control) [µM]
O=C(O[C@H]1C(=O)c2c(cc(O)c(O)c2O)O[C@@H]1c1cc(O)c(O)c(O)c1)c1cc(O)c(O)c(O)c1 [Compound 1, Meichasu A] | 4.43 ± 0.02 | 1.70 ± 0.00 | 84.93 ± 0.58 | 32.52 ± 0.16 |  |  |  | 
C[C@@H]1O[C@@H](Oc2c(-c3ccc(O)c(O)c3)oc3c(O)c(O)c(O)c(O)c3c2=O)[C@H](O)[C@H](O)[C@H]1O [Compound 2, Meichasu B] | 6.73 ± 0.03 | 1.96 ± 0.01 | 88.46 ± 0.63 | 44.4 ± 0.63 |  |  |  | 
O=C1c2c(O)cc(O)cc2O[C@H](c2cc(O)c(O)c(O)c2)[C@H]1O [Compound 3, (2R,3R)-Dihydromyricetin] | 5.91 ± 0.11 | 1.71 ± 0.01 |  | 28.3 ± 0.38 | moderate hepatoprotective activities |  |  | 
O=c1c(O)c(-c2ccc(O)c(O)c2)oc2cc(O)cc(O)c12 [Compound 4, Quercetin] | 2.76 ± 0.04 | 2.67 ± 0.01 | 84.9 ± 1.21 | 25.5 ± 0.63 |  |  |  | 
O=c1c(O)c(-c2cc(O)c(O)c(O)c2)oc2cc(O)cc(O)c12 [Compound 5, Myricetin] | 3.39 ± 0.07 | 1.72 ± 0.01 |  | 29.8 ± 0.59 | moderate hepatoprotective activities |  |  | 
O=C1C[C@@H](c2ccc(O)cc2)Oc2cc(O)cc(O)c21 [Compound 6, Naringenin] | > 20 | 0.07 ± 0.00 | 83.7 ± 0.67 | > 80 |  |  |  | 
O=c1c(O)c(-c2ccc(O)cc2)oc2cc(O)cc(O)c12 [Compound 7, Kaempferol] | 19.9 ± 0.46 | 0.85 ± 0.01 | 87.08 ± 0.6 | > 80 |  |  |  | 
O=C(O)c1c(O)cccc1CCc1ccc(O)cc1 [Compound 8, lunularic acid] | > 20 | 0.13 ± 0.01 |  | > 80 |  |  |  | 
O=C1c2c(O)cc(O)cc2O[C@@H](c2cc(O)c(O)c(O)c2)[C@@H]1O [Compound 10, (2S,3S)-Dihydromyricetin] | 5.01 ± 0.11 | 1.43 ± 0.01 |  | 43.5 ± 0.36 |  |  |  | 
O=c1c(O)coc2cc(O)cc(O)c12 [Compound 11, 3,5,7-Trihydroxychromone] | > 20 | 0.15 ± 0.00 |  | > 80 |  |  |  | 
O=C1c2c(O)cc(O)cc2OC(c2ccc(O)c(O)c2)C1O (stereo not shown) [Compound 12, Taxifolin] | 7.36 ± 0.08 | 1.32 ± 0.01 | 85.4 ± 1.22 | 39.21 ± 0.18 |  |  |  | 
C[C@@H]1O[C@@H](Oc2c(-c3ccc(O)cc3)oc3cc(O)cc(O)c3c2=O)[C@H](O)[C@H](O)[C@H]1O [Compound 14, Afzelin] | > 20 | 0.07 ± 0.00 |  | > 80 | essentially inactive |  |  | 
O=C(CCc1ccc(O)cc1)c1c(O)cc(O)cc1O[C@@H]1O[C@H](CO)[C@@H](O)[C@H](O)[C@H]1O [Compound 15, Phloridzin] | > 20 | 0.17 ± 0.01 |  | > 80 |  | minimally or not |  | 
CC(C)CC(=O)c1c(O)cc(O)cc1O[C@@H]1O[C@H](CO)[C@@H](O)[C@H](O)[C@H]1O [Compound 16, 2-O-[1-(3-Methylbutyryl)phloroglucin-ol]-β-D-glucopyranoside] | > 20 | 0.24 ± 0.01 |  | > 80 |  |  |  | 
O=C1CC(c2cc(O)c(O)c(O)c2)Oc2cc(O)cc(O)c21 (stereo not shown) [Compound 17, 5,7,3′,4′,5′-Pentahydroxy flavanone] | 10.2 ± 0.13 | 1.18 ± 0.01 |  | 43.1 ± 0.94 |  |  |  | 
C[C@@H]1O[C@@H](Oc2c(-c3ccc(O)c(O)c3)oc3cc(O)cc(O)c3c2=O)[C@H](O)[C@H](O)[C@H]1O [Compound 18, Quercitrin] | 9.96 ± 0.16 | 1.35 ± 0.02 |  | 63.5 ± 0.97 | essentially inactive | minimally or not |  | 
O=C(O[C@H]1C(=O)c2c(O)cc(O)cc2O[C@@H]1c1cc(O)c(O)c(O)c1)c1cc(O)c(O)c(O)c1 [Compound 19, (2R,3R)-3,4-Dihydro-5,7-dihydroxy-4-oxo-2-(3,4,5-trihydroxyphenyl)-2H-1-benzopyran-3-yl 3,4,5-trihydroxybenzoate] | 2.19 ± 0.01 | 2.79 ± 0.01 |  | 17.3 ± 0.31 |  |  | 2.79 | 
O=C1O[C@H]([C@@H](O)CO)C(O)=C1O [ascorbic acid, reference compound] | 19 ± 0.31 | 0.57 ± 0.01 |  | 77.9 ± 0.87 |  |  |  | 
COC(=O)c1cc(OC)c2c(c1-c1c(CO)cc(OC)c3c1OCO3)OCO2 [bicyclol, reference compound] |  |  | 83.01 ± 0.82 |  |  |  |  | 
Myricitrin [Compound 13] | 6.88 ± 0.13 | 1.69 ± 0.02 |  | 35.03 ± 0.28 |  | minimally or not |  | 
lunularin [Compound 9] | > 20 | 0.09 ± 0.00 |  | > 80 |  |  |  | 9.42 ± 0.51
